Measurements: article PMC4775997, “Imidazopyridazine Inhibitors of Plasmodium falciparum Calcium-Dependent Protein Kinase 1 Also Target Cyclic GMP-Dependent Protein Kinase and Heat Shock Protein 90 To Kill the Parasite at Different Stages of Intracellular Development” (Antimicrobial Agents and Chemotherapy, 2016)
Like-named read-outs stand apart in the source and are kept apart here.

Columns and labels:
P. falciparum 3D7 [1] = assay: SYBR green I growth assay, wild-type parasites; assay type: cell-based, Plasmodium falciparum
PfPKG = target: T1, PfPKG (Plasmodium falciparum, UniProt Q8I719); assay: Microfluidic fluorescent shift assay of cGMP-dependent protein kinase activity; assay type: biochemical; conditions: read-out: Enzyme inhibition IC50, PKG
T1 construct: plasmids (pTrcHisC) encoding full-length PfPKG and PfPKG T618Q with N-terminal His tags; His tag (N); made in house; host or cells: E. coli Rosetta2(DE3)

PfPKG T618Q = target: T2, PfPKG T618Q (Plasmodium falciparum, UniProt Q8I719, T618Q); assay: biochemical; assay type: biochemical; conditions: for IC50: read-out: Enzyme inhibition IC50, PKG T618Q
T2 construct: plasmids (pTrcHisC) encoding full-length PfPKG and PfPKG T618Q with N-terminal His tags; His tag (N); made in house; host or cells: E. coli Rosetta2(DE3)

3D7 PKG T618Q = assay: microbe, parasite or virus in culture; assay type: cell-based, Plasmodium falciparum; conditions: for EC50: read-out: Parasite inhibition EC50, 3D7 PKG T618Q
P. falciparum 3D7 [2] = assay: Microscopic examination of Giemsa-stained smears (stage of action); conditions: for Stage of action (before or after DNA synthesis): Table S1, ring-stage parasites, 10x EC50 for 48 h; for Stage of action: ring stage parasites treated with 10 times the 96-h EC50 for 48 h
CDPK1 = CDPK1 (Plasmodium falciparum, UniProt P62344); assay: biochemical; assay type: biochemical; conditions: Table S2; read-out: Enzyme inhibition IC50, CDPK1
[3] = Table S1, single experiment with duplicate samples, or mean of triplicate experiments (SD), read-out: EC50 48 hours
[4] = Table S1, single experiment with duplicate samples, or mean of triplicate experiments (SD), read-out: EC50 96 hours
[5] = Plasmodium falciparum, 3D7, 48 h, read-out: EC50 after treatment for 48 h
[6] = Plasmodium falciparum, 3D7, 96 h, read-out: EC50 96 hours
[7] = Plasmodium falciparum, 3D7, 96 h, read-out: EC50 after treatment for 96 h
[8] = Plasmodium falciparum, 3D7, 96 h, read-out: Parasite inhibition EC50, 3D7
[9] = Plasmodium falciparum, 3D7, 96 h
[10] = Table 2, SYBR green I, 96 h, single experiment, or mean (SD) of duplicate assays

CDPK1, sequence (P62344 whole entry): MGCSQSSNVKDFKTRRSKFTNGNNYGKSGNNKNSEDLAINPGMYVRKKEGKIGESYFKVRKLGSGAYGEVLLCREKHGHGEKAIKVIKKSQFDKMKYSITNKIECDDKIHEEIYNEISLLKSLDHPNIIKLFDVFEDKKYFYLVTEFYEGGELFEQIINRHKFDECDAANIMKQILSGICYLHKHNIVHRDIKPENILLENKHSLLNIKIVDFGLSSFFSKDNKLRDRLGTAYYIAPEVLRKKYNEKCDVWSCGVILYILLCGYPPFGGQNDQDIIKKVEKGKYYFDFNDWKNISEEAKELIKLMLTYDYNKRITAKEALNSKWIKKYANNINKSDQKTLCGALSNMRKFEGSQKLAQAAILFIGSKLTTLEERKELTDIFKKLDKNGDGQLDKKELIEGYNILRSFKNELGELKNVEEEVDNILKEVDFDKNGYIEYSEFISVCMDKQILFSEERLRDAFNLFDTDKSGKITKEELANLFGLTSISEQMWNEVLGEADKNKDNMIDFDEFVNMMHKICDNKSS
T2 sequence (Q8I719 whole entry T618Q): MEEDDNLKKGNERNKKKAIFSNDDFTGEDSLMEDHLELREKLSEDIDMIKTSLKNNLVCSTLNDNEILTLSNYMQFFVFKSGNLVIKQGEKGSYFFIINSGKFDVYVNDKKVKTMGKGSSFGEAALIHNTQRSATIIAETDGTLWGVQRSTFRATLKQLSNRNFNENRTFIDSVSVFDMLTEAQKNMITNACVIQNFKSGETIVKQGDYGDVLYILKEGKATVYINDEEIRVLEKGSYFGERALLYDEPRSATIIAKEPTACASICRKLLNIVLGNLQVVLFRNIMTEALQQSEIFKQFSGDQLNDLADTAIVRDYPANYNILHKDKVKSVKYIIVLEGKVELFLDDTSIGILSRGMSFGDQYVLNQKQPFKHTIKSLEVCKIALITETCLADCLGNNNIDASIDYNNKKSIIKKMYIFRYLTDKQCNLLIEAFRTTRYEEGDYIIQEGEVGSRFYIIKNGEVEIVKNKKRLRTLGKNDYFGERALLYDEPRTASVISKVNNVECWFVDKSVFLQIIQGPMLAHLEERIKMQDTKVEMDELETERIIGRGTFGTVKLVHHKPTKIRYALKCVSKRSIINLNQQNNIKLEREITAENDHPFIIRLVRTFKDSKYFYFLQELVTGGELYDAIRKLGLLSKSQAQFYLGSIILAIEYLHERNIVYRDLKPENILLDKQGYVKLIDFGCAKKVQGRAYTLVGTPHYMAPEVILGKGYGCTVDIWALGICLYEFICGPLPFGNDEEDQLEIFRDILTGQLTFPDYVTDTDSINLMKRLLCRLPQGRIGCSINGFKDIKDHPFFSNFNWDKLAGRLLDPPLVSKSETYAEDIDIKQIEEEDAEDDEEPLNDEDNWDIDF

SMILES	EC50 (P. falciparum 3D7 [1]; [3]) [µM]	EC50 (P. falciparum 3D7 [1]; [4]) [µM]	IC50 (PfPKG; Table S2) [µM]	IC50 (PfPKG T618Q; Table S2) [µM]	ratio EC5048:EC5096 (P. falciparum 3D7 [1]; Table S1)	further results
CN1CCC(Nc2ccc3ncc(-c4cc(F)c(Nc5ccccn5)c(F)c4)n3n2)CC1 [Compound 2]	1.28	1.04	0.069	12.8		
CN1CCC(Nc2ccc3ncc(-c4ccc(Nc5ncccc5F)nc4)n3n2)CC1 [Compound 17]	1.15	0.58	0.118	12.1		
Fc1cccnc1Nc1ncc(-c2cnc3ccc(NC4CCC(N5CCOCC5)CC4)nn23)cn1 (centres unmarked) [Compound 41]						EC50 (P. falciparum 3D7 [1]; [5]): > 1000 µM; EC50 (P. falciparum 3D7 [1]; [6]): 0.04 µM; EC50 (P. falciparum 3D7 [1]; [7]): 0.037 µM; EC50 (P. falciparum 3D7 [1]; [8]): 0.042 µM; EC50 (3D7 PKG T618Q; [9]): 0.923 µM; Stage of action (before or after DNA synthesis) (P. falciparum 3D7 [2]): late schizont; Developmental arrest seen in smears (P. falciparum 3D7 [2]; parasites about 21 h after invasion, 48 h at 10 times the EC50 determined by FACS (compound C 0.3 μM, compound D 4 μM)): arrested prior to merozoite egress; Stage of action (P. falciparum 3D7 [2]): Late schizont
CC(C)CCNc1ncc(-c2cnc3ccc(NC4CCN(C)CC4)nn23)cn1 [Compound 23]	2.49	0.99	0.16	4.76	2.5	IC50 (CDPK1): 0.014 µM; Selectivity PKG T618Q/PKG (PfPKG T618Q; Table S2): 30
Fc1cccnc1Nc1ncc(-c2cnc3ccc(NCCN4CCNCC4)nn23)cn1 [Compound 30]	0.31	0.05			6.0	
CC(C)CCNc1ccc(-c2cnc3ccc(N4CCC(N)CC4)nn23)cn1 [Compound 12]	0.41	0.25			1.6	
CN1CCC(Nc2ccc3ncc(-c4cnc(Nc5cnccn5)c(F)c4)n3n2)CC1 [Compound 15]	1.74	0.96	0.249	51.3	1.9	IC50 (CDPK1): 0.02 µM; Selectivity PKG T618Q/PKG (PfPKG T618Q; Table S2): 206
CN1CCC(Nc2ccc3ncc(-c4ccc(Nc5ccccn5)c(F)c4)n3n2)CC1 [Compound 16]			0.088	10.6		
CC(C)CCNc1ncc(-c2cnc3ccc(NC4CCC(N)CC4)nn23)cn1 (centres unmarked) [Compound 37]		0.65				
c1ccc(-n2cc(-c3cnc4ccc(NC5CCNCC5)nn34)cn2)cc1 [Compound 10]	0.72	0.46			1.6	
Fc1cccnc1Nc1ccc(-c2cnc3ccc(NC4CCNCC4)nn23)cn1 [Compound 24]	2.45	0.71	0.062	1.25	3.4	IC50 (CDPK1): 0.011 µM; Selectivity PKG T618Q/PKG (PfPKG T618Q; Table S2): 20
CC(C)CCNc1ncc(-c2cnc3ccc(NC4CCNCC4)nn23)cn1 [Compound 29]	3.46	0.64	0.093	0.88	5.4	IC50 (CDPK1): 0.018 µM; Selectivity PKG T618Q/PKG (PfPKG T618Q; Table S2): 10
Fc1cccnc1Nc1ccc(-c2cnc3ccc(NC4CCNCC4)nn23)cc1 [Compound 13]	1.25	0.76	0.162	3.68	1.7	IC50 (CDPK1): 0.014 µM; Selectivity PKG T618Q/PKG (PfPKG T618Q; Table S2): 23
NC1CCC(Nc2ccc3ncc(-c4cnc(Nc5ncccc5F)nc4)n3n2)CC1 (centres unmarked) [Compound 36]						EC50 (P. falciparum 3D7 [1]; [5]): > 1000 µM; EC50 (P. falciparum 3D7 [1]; [6]): 0.02 µM; EC50 (P. falciparum 3D7 [1]; [7]): 0.023 µM; EC50 (P. falciparum 3D7 [1]; [8]): 0.034 µM; EC50 after treatment for 48 h (P. falciparum 3D7 [1]; SYBR green I, 48 h incubation, mean of three independent experiments (SD)): not able to be determined with any accuracy; EC50 (3D7 PKG T618Q; [9]): 0.901 µM; Stage of action (before or after DNA synthesis) (P. falciparum 3D7 [2]): late schizont; Stage of action (P. falciparum 3D7 [2]): Late schizont
Fc1cccnc1Nc1ncc(-c2cnc3ccc(NC4CCNCC4)nn23)cn1 [Compound 32]	1.79	0.11	0.007	6.16	16.6	IC50 (CDPK1): 0.01 µM; Selectivity PKG T618Q/PKG (PfPKG T618Q; Table S2): 931
NC1CCC(Nc2ccc3ncc(-c4ccc(Nc5ncccc5F)cc4)n3n2)CC1 (centres unmarked) [Compound 9]	0.62	0.4	0.048	16.8		
Fc1cccnc1Nc1ncc(-c2cnc3ccc(NC4CCC(N5CCCC5)CC4)nn23)cn1 (centres unmarked) [Compound 39]						EC50 (P. falciparum 3D7 [1]; SYBR green I, 48 h incubation, mean of three independent experiments (SD), read-out: EC50 after treatment for 48 h): > 1000 µM; EC50 (P. falciparum 3D7 [1]; SYBR green I, 96 h incubation, mean of three independent experiments (SD), read-out: EC50 after treatment for 96 h): 0.02 µM; EC50 (P. falciparum 3D7 [1]; Table 2, SYBR green I, 96 h, single experiment, or mean (SD) of duplicate assays, read-out: Parasite inhibition EC50, 3D7): 0.034 µM; IC50 (PfPKG; Table 2, ATP at Km 20 μM): 0.002 µM; IC50 (PfPKG T618Q; Table 2, ATP at Km 90 μM): 25.5 µM; EC50 (3D7 PKG T618Q; [10]): 0.982 µM; Decrease in potency against the PKG T618Q variant parasite (3D7 PKG T618Q; versus 3D7 WT, 96 h SYBR green I): 29 fold; Stage of action (before or after DNA synthesis) (P. falciparum 3D7 [2]): late schizont; Stage of action (P. falciparum 3D7 [2]): Late schizont
CC(C)CCNc1ccc(-c2cnc3ccc(NC4CCN(C)C4)nn23)cn1 (centres unmarked) [Compound 6]	0.59	0.42			1.4	
CC(C)CCNc1ccc(-c2cnc3ccc(N4CCC(N(C)C)CC4)nn23)cn1 [Compound 5]	0.54	0.39			1.4	
CN1CCC(Nc2ccc3ncc(-c4cnc(Nc5ncccc5F)nc4)n3n2)CC1 [Compound 33]		0.03	0.005	10		
Fc1cc(-c2cnc3ccc(NC4CCNCC4)nn23)cnc1Nc1cnccn1 [Compound 27]	4.3	0.84	0.101	10	5.1	IC50 (CDPK1): 0.017 µM; Selectivity PKG T618Q/PKG (PfPKG T618Q; Table S2): 99
Fc1cc(-c2cnc3ccc(NC4CCNCC4)nn23)cnc1Nc1ccccn1 [Compound 25]	1.96	0.54	0.054	9.93	3.6	IC50 (CDPK1): 0.013 µM; Selectivity PKG T618Q/PKG (PfPKG T618Q; Table S2): 182
c1nc(N2CCCCC2)ncc1-c1cnc2ccc(NC3CCNCC3)nn12 [Compound 34]		1.18				
CCCCNc1ccc(-c2cnc3ccc(N4CCC(N)CC4)nn23)cn1 [Compound 19]	0.57	0.26			2.2	
CN1CCC(Nc2ccc3ncc(-c4ccc(Nc5cnccn5)cc4)n3n2)CC1 [Compound 3]	0.76	0.61			1.3	
CCCCNc1ccc(-c2cnc3ccc(N4CCN(C)CC4)nn23)cn1 [Compound 14]	2.1	1.18			1.8	
CC(C)CCNc1ccc(-c2cnc3ccc(NC4CCN(C)CC4)nn23)cn1 [Compound 43]						EC50 (P. falciparum 3D7 [1]; Table S2, 96 h, read-out: Parasite inhibition EC50, 3D7): 0.079 µM; EC50 (3D7 PKG T618Q; [10]): 0.093 µM
c1cnc(Nc2ncc(-c3cnc4ccc(NC5CCNCC5)nn34)cn2)cn1 [Compound 40]		1.23				
CN1CCC(Nc2ccc3ncc(-c4ccc(Nc5ncccc5F)cc4)n3n2)CC1 [Compound 18]	1.22	0.6	0.404	15.7		
